{
  "source": "patent US7692038B2",
  "about": "“Crystalline forms” (Pfizer, Inc., priority 2006, dated 2010)",
  "key": {"[1]": {"experiment": "Hygroscopicity by dynamic vapour sorption (DVS), water sorption and desorption", "assay_type": "physicochemical", "settings": "30° C.", "method": "Hygroscopicity was assessed for forms I and II using dynamic vapour sorption (DVS). The samples were characterised using a Surface Measurement Systems Ltd, dynamic vapour sorption equipment, model DVS-1. The analysis was conducted at 30° C. with a nitrogen gas flow of 200 cc/min. Water sorption and desorption were determined in the range 0 to 90% relative humidity (RH) using 15% RH intervals. Exposure was for a minimum of two hours at each humidity, or until the rate of weight change was less than 0.0005%/minute (averaged over 10 minutes). Sample weights were in the range 23-36 mg. The samples were weighed using a CAHN D-200, seven place digital recording balance, which is an integral part of the equipment. The results are tabulated below in Tables 6 and 7 and plotted in FIGS. 15 and 16."}, "[2]": {"experiment": "Relative thermodynamic stability of polymorphs (slurry conversion)", "assay_type": "physicochemical", "settings": "ambient temperature", "method": "The crystalline forms of the invention may be prepared by the processes described below. The skilled person will understand that the preparation of particular polymorphic forms of a compound can sometimes be problematic, and that small changes in reaction conditions can sometimes result in an unexpected product. In particular, the presence of seeds in the atmosphere under which the experiment is conducted can have a decisive outcome on the result. The processes described below, however, are generally reliable. […] The form I polymorph is the more kinetically favoured product at ambient temperature and its formation is encouraged by rapid crystallisation techniques such as rapid cooling. Seeding with the desired product will obviously increase success in these preparations. Preparation of form I material is particularly encouraged by the use of a form I seed which contains a mixture of diastereomers due to epimerisation at the modified aspartate residue.\nPure form II may be prepared by slurrying a mixture of forms I and II in acetonitrile at room temperature until full conversion has taken place (typically a few days, e.g. 3 days). The product is then filtered off and dried (e.g. in a vacuum oven). The following procedures are illustrative.\nA 40:60 mixture (by weight) of forms I and II was slurried in acetonitrile and left for three days. […]"}},
  "data": [
    {"smiles": "C[C@H](NC(=O)C(=O)Nc1ccccc1C(C)(C)C)C(=O)N[C@@H](CC(=O)O)C(=O)COc1c(F)c(F)cc(F)c1F", "note": "[Form I, (3S)-3-[N—(N′-(2-tert-butylphenyl)oxamyl)alaninyl]amino-5-(2′,3′,5′,6′-tetrafluorophenoxy)-4-oxopentanoic acid]", "values": [
      {"measurement": "Water Sorption (% w/dry w) Desorption", "setting": "[1]; 15% RH", "value": 0.015, "unit": "% w/dry w"},
      {"measurement": "Water Sorption (% w/dry w) Sorption", "setting": "[1]; 15% RH", "value": 0.018, "unit": "% w/dry w"},
      {"measurement": "Water Sorption (% w/dry w) Desorption", "setting": "[1]; 30% RH", "value": 0.025, "unit": "% w/dry w"},
      {"measurement": "Water Sorption (% w/dry w) Sorption", "setting": "[1]; 30% RH", "value": 0.028, "unit": "% w/dry w"},
      {"measurement": "Water Sorption (% w/dry w) Desorption", "setting": "[1]; 45% RH", "value": 0.037, "unit": "% w/dry w"},
      {"measurement": "Water Sorption (% w/dry w) Sorption", "setting": "[1]; 45% RH", "value": 0.049, "unit": "% w/dry w"},
      {"measurement": "Water Sorption (% w/dry w) Desorption", "setting": "[1]; 60% RH", "value": 0.055, "unit": "% w/dry w"},
      {"measurement": "Water Sorption (% w/dry w) Sorption", "setting": "[1]; 60% RH", "value": 0.072, "unit": "% w/dry w"},
      {"measurement": "Water Sorption (% w/dry w) Desorption", "setting": "[1]; 75% RH", "value": 0.105, "unit": "% w/dry w"},
      {"measurement": "Water Sorption (% w/dry w) Sorption", "setting": "[1]; 75% RH", "value": 0.110, "unit": "% w/dry w"},
      {"measurement": "Water Sorption (% w/dry w) Desorption", "setting": "[1]; 90% RH", "value": 0.208, "unit": "% w/dry w"},
      {"measurement": "Water Sorption (% w/dry w) Sorption", "setting": "[1]; 90% RH", "value": 0.208, "unit": "% w/dry w"}
    ]},
    {"smiles": "C[C@H](NC(=O)C(=O)Nc1ccccc1C(C)(C)C)C(=O)N[C@@H](CC(=O)O)C(=O)COc1c(F)c(F)cc(F)c1F", "note": "[Form II, (3S)-3-[N—(N′-(2-tert-butylphenyl)oxamyl)alaninyl]amino-5-(2′,3′,5′,6′-tetrafluorophenoxy)-4-oxopentanoic acid]", "values": [
      {"measurement": "Water Sorption (% w/dry w) Desorption", "setting": "[1]; 15% RH", "value": 0.009, "unit": "% w/dry w"},
      {"measurement": "Water Sorption (% w/dry w) Sorption", "setting": "[1]; 15% RH", "value": 0.007, "unit": "% w/dry w"},
      {"measurement": "Water Sorption (% w/dry w) Desorption", "setting": "[1]; 30% RH", "value": 0.015, "unit": "% w/dry w"},
      {"measurement": "Water Sorption (% w/dry w) Sorption", "setting": "[1]; 30% RH", "value": 0.014, "unit": "% w/dry w"},
      {"measurement": "Water Sorption (% w/dry w) Desorption", "setting": "[1]; 45% RH", "value": 0.021, "unit": "% w/dry w"},
      {"measurement": "Water Sorption (% w/dry w) Sorption", "setting": "[1]; 45% RH", "value": 0.020, "unit": "% w/dry w"},
      {"measurement": "Water Sorption (% w/dry w) Desorption", "setting": "[1]; 60% RH", "value": 0.031, "unit": "% w/dry w"},
      {"measurement": "Water Sorption (% w/dry w) Sorption", "setting": "[1]; 60% RH", "value": 0.029, "unit": "% w/dry w"},
      {"measurement": "Water Sorption (% w/dry w) Desorption", "setting": "[1]; 75% RH", "value": 0.044, "unit": "% w/dry w"},
      {"measurement": "Water Sorption (% w/dry w) Sorption", "setting": "[1]; 75% RH", "value": 0.042, "unit": "% w/dry w"},
      {"measurement": "Water Sorption (% w/dry w) Desorption", "setting": "[1]; 90% RH", "value": 0.057, "unit": "% w/dry w"},
      {"measurement": "Water Sorption (% w/dry w) Sorption", "setting": "[1]; 90% RH", "value": 0.057, "unit": "% w/dry w"},
      {"measurement": "Thermodynamic stability of the polymorph", "setting": "[2]", "value": "most thermodynamically stable"}
    ]}
  ]
}
